Values quoted from earlier work, collected in US20080004230A1, “SAM Riboswitch and Uses Thereof” (priority 2006, published 2008).
Where two headings read alike, the source gives them in different places.

Experiments:
[1] = biological target: SAM-I riboswitch RNA (yitJ homolog from B. subtilis); conditions: read-out: binding affinity of the analog for the riboswitch RNA
[2] = tested on: SAM-I riboswitch; conditions: binding preference of the riboswitch, SAM relative to SAH

For `Nc1ncnc2c1ncn2[C@@H]1O[C@H](CSCC[C@H](N)C(=O)O)[C@@H](O)[C@H]1O` [SAH, S-adenosylhomocysteine], the Kd [1] is listed as 0.4 µM.
For `C[S+](CC[C@H](N)C(=O)O)C[C@H]1O[C@@H](n2cnc3c(N)ncnc32)[C@H](O)[C@@H]1O` (stereo partly drawn) [SAM, S-adenosylmethionine], the “preference for SAM over SAH” value [2] is given as 100 fold.
For `Nc1ncnc2c1ncn2[C@@H]1O[C@H](CSC[C@H](N)C(=O)O)[C@@H](O)[C@H]1O` [SAC, S-adenosylcysteine], the Kd ([1]; analog with one less side chain methylene group) is listed as ~30 µM.
